Assay results taken from PubChem BioAssay AID1963983 (Molecular Pharmacology Branch, DTP, NCI, 2024).

System: 186277-243-T-J2-PDC multi-cell spheroid viability
Assay: Anticancer human tumor 186277-243-T-J2-PDC patient-derived colon adenocarcinoma cell line growth inhibition [PI3K]
Conditions: for IC50: curve of first compound; for viability, T/C: stronger effect = lower value
Text: Combinatorial screen of targeted agents with the PI3K inhibitors inavolisib, alpelisib, duvelisib, and copanlisib in multi-cell type tumor spheroids
A high-throughput screen of multi-cell type tumor spheroids was designed to identify active combinations of targeted small molecules and PI3K pathway inhibitors. Complex spheroids include a stromal component modeled by human endothelial cells (HUVEC) and fibroblasts modeled by human mesenchymal stem cells (MSCs). The concentration ranges selected for each drug and investigational agent were based upon clinically achievable concentrations if the clinical Cmax of the agent was known.
Compounds. The drugs and investigational agents: inavolisib (NSC800729), alpelisib (NSC765974), duvelisib (NSC772469), copanlisib (NSC816437), ipatasertib (NSC767898), afuresertib (NSC778305), talazoparib (NSC767125), sapanisertib (NSC764658), selumetinib (NSC741078), tovorafenib (DAY101, NSC766906), vemurafenib (NSC761431), ravoxertinib (NSC781343), sotorasib (NSC818433), MRTX1133 (NSC 836407), abemaciclib (NSC 768073), palbociclib (NSC758247), venetoclax (NSC 766270), SY5609 (NSC837396), enzalutamide (NSC755605), and darolutamide (NSC825331), were obtained from the National Cancer Institute (NCI) Developmental Therapeutics Program Chemical Repository. The FDA-approved anticancer drug set is available from the NCI Developmental Therapeutics Program. […] The stock solutions were prepared in dimethyl sulfoxide (DMSO, Sigma-Aldrich, St. Louis, MO, cat. D2650) at 800-fold the tested concentration and stored at -70 degrees C prior to their use. All drugs and investigational agents were tested over a range starting from a high concentration at or near the clinical Cmax and decreasing in half-log increments. If the clinical Cmax for an agent had not been determined, the highest concentration tested was 10 microM.
Cell Culture. All cells were maintained in an incubator at 37 degrees C and 5% CO2 with 95% humidity. The PDC lines were cultured according to standard operating procedures established by the NCI PDMR (https://pdmr.cancer.gov/sops/default.htm). All PDCs were thawed and cultured in Matrigel-coated flasks prepared with a working solution of 1X Ham's F-12 nutrient mix, without supplementation (Invitrogen, Waltham, MA, cat. 11765054), 100 U/mL penicillin-streptomycin (Invitrogen, cat. 15140122), and 2.5% Matrigel (Corning Inc., Corning, NY, cat. 354248) for the first three passages. The 354836-022-R-J1-PDC, 475296-252-R-J1-PDC, and 997726-040-R-J2-PDC lines were cultured in 6A media, which includes advanced DMEM/F-12 (Thermo Fisher Scientific, cat. 12634028), 10 mM HEPES (Thermo Fisher Scientific, cat. 15630080), 1X GlutaMAX supplement (Thermo Fisher Scientific, cat. 35050061), 0.1 mg/mL primocin (InvivoGen, San Diego, CA, cat. ant-pm-2), 10% defined fetal bovine serum, heat inactivated (HyClone Laboratories Inc., Logan, UT, cat. SH30070.03HI), 50% L-WRN conditioned media (ATCC, cat. CRL-3276), 1.25 mM N-Acetyl-L-cysteine (Sigma-Aldrich, cat. A9165), 10 mM nicotinamide (Sigma-Aldrich, cat. N0636), 1X B-27 supplement (Thermo Fisher Scientific, cat. 17504044), 1X N-2 supplement (Thermo Fisher Scientific, cat. 17502048), and 10 microM Y-27632 dihydrochloride (Tocris Bioscience, Bristol, United Kingdom, cat. 1254). The 624824-186-R-J2-PDC line was cultured in 6C/Colon 1B media, which includes all 6A media components plus 50 ng/mL human EGF recombinant protein (Thermo Fisher Scientific, cat. PHG0311). […]

[1] = second compound 0.0316 µM, first compound 0.0316 µM
[2] = second compound 0.0316 µM, first compound 0.1 µM
[3] = second compound 0.0316 µM, first compound 0.316 µM
[4] = second compound 0.0316 µM, first compound 1 µM
[5] = second compound 0.0316 µM, first compound 3.16 µM
[6] = second compound 0.0316 µM, first compound 10 µM
[7] = second compound 0.1 µM, first compound 0.0316 µM
[8] = second compound 0.1 µM, first compound 0.1 µM
[9] = second compound 0.1 µM, first compound 0.316 µM
[10] = second compound 0.1 µM, first compound 1 µM
[11] = second compound 0.1 µM, first compound 3.16 µM
[12] = second compound 0.1 µM, first compound 10 µM
[13] = second compound 0.316 µM, first compound 0.0316 µM
[14] = second compound 0.316 µM, first compound 0.1 µM
[15] = second compound 0.316 µM, first compound 0.316 µM
[16] = second compound 0.316 µM, first compound 1 µM
[17] = second compound 0.316 µM, first compound 3.16 µM
[18] = second compound 0.316 µM, first compound 10 µM
[19] = second compound 1 µM, first compound 0.0316 µM
[20] = second compound 1 µM, first compound 0.1 µM
[21] = second compound 1 µM, first compound 0.316 µM
[22] = second compound 1 µM, first compound 1 µM
[23] = second compound 1 µM, first compound 3.16 µM
[24] = second compound 1 µM, first compound 10 µM
[25] = second compound 0.00316 µM, first compound 0.0316 µM
[26] = second compound 0.00316 µM, first compound 0.1 µM
[27] = second compound 0.00316 µM, first compound 0.316 µM
[28] = second compound 0.00316 µM, first compound 1 µM
[29] = second compound 0.00316 µM, first compound 3.16 µM
[30] = second compound 0.00316 µM, first compound 10 µM
[31] = second compound 0.01 µM, first compound 0.0316 µM
[32] = second compound 0.01 µM, first compound 0.1 µM
[33] = second compound 0.01 µM, first compound 0.316 µM
[34] = second compound 0.01 µM, first compound 1 µM
[35] = second compound 0.01 µM, first compound 3.16 µM
[36] = second compound 0.01 µM, first compound 10 µM
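Note: spheroids exposed to compounds for seven days before viability reading.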
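Throughout, for viability, T/C: 100% = DMSO vehicle control viability.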

Work on `CC(C)NCC(C(=O)N1CCN(c2ncnc3c2C(C)CC3O)CC1)c1ccc(Cl)cc1` (stereo unspecified) + Cc1nc(NC(=O)N2CCCC2C(N)=O)sc1-c1ccnc(C(C)(C)C(F)(F)F)c1 yielded an IC50 (second compound 0.0316 µM) of 893 nM, an IC50 (second compound 0.1 µM) of 603 nM and an IC50 (second compound 0.316 µM) of 544 nM. The IC50 (second compound 1 µM) was 262 nM, the IC50 (second compound 3.16 µM) was 59.7 nM and the IC50 (second compound 10 µM) was < 31.6 nM. For the same compound, the viability, T/C [1] was 115%, the viability, T/C [2] was 93% and the viability, T/C [3] was 59%. For the same compound, the viability, T/C [4] was 54.1%, the viability, T/C [5] was 31.6% and the viability, T/C [6] was 22.5%. For the same compound, the viability, T/C [7] was 90.3%, the viability, T/C [8] was 92.4% and the viability, T/C [9] was 58.6%. It also gave a viability, T/C [10] of 43.9%, a viability, T/C [11] of 23.5% and a viability, T/C [12] of 23.9%. It also gave a viability, T/C [13] of 94.5%, a viability, T/C [14] of 80.2% and a viability, T/C [15] of 64%. It also gave a viability, T/C [16] of 36.5%, a viability, T/C [17] of 18% and a viability, T/C [18] of 14.3%. It also gave a viability, T/C [19] of 92.5%, a viability, T/C [20] of 74.8% and a viability, T/C [21] of 45.4%. It also gave a viability, T/C [22] of 24.7%, a viability, T/C [23] of 21.4% and a viability, T/C [24] of 16.3%. It also gave a viability, T/C (second compound 3.16 µM, first compound 0.0316 µM) of 56.3%, a viability, T/C (second compound 3.16 µM, first compound 0.1 µM) of 47% and a viability, T/C (second compound 3.16 µM, first compound 0.316 µM) of 25.3%. The viability, T/C (second compound 3.16 µM, first compound 1 µM) was 20.3%, the viability, T/C (second compound 3.16 µM, first compound 3.16 µM) was 10% and the viability, T/C (second compound 3.16 µM, first compound 10 µM) was 5.7%. The viability, T/C (second compound 10 µM, first compound 0.0316 µM) was 14.2%, the viability, T/C (second compound 10 µM, first compound 0.1 µM) was 13.1% and the viability, T/C (second compound 10 µM, first compound 0.316 µM) was 7.49%. The viability, T/C (second compound 10 µM, first compound 1 µM) was 9.25%, the viability, T/C (second compound 10 µM, first compound 3.16 µM) was 5.71% and the viability, T/C (second compound 10 µM, first compound 10 µM) was 3.29%.

For `C#Cc1c(F)ccc2cc(O)cc(-c3ncc4c(N5CC6CCC(C5)N6)nc(OCC56CCCN5CC(F)C6)nc4c3F)c12` (stereo unspecified) + COc1c(OCCCN2CCOCC2)ccc2c3n(c(=NC(=O)c4cnc(N)nc4)nc12)CCN3, the IC50 (second compound 0.00316 µM) was 65.3 nM, the IC50 (second compound 0.01 µM) was < 31.6 nM and the IC50 (second compound 0.0316 µM) was < 31.6 nM. The IC50 (second compound 0.1 µM) was < 31.6 nM, the IC50 (second compound 0.316 µM) was < 31.6 nM and the IC50 (second compound 1 µM) was < 31.6 nM. For the same compound, the viability, T/C [25] was 78.4%, the viability, T/C [26] was 32.4% and the viability, T/C [27] was 17.5%. It also gave a viability, T/C [28] of 8.98%, a viability, T/C [29] of 9.36% and a viability, T/C [30] of 6.51%. The viability, T/C [31] was 47.8%, the viability, T/C [32] was 20.9% and the viability, T/C [33] was 13.7%. For the same compound, the viability, T/C [34] was 10.1%, the viability, T/C [35] was 8.35% and the viability, T/C [36] was 5.59%. The viability, T/C [1] was 16.9%, the viability, T/C [2] was 7.55% and the viability, T/C [3] was 10.6%. It also gave a viability, T/C [4] of 3.62%, a viability, T/C [5] of 3.8% and a viability, T/C [6] of 4.03%. It also gave a viability, T/C [7] of 5.72%, a viability, T/C [8] of 4.46% and a viability, T/C [9] of 3%. For the same compound, the viability, T/C [10] was 3.2%, the viability, T/C [11] was 1.5% and the viability, T/C [12] was 0.18%. It also gave a viability, T/C [13] of 3.44%, a viability, T/C [14] of 0.58% and a viability, T/C [15] of 0.7%. The viability, T/C [16] was 0.32%, the viability, T/C [17] was 0.85% and the viability, T/C [18] was 0.1%. The viability, T/C [19] was 0.56%, the viability, T/C [20] was 0.38% and the viability, T/C [21] was 0.53%. The viability, T/C [22] was 0.17%, the viability, T/C [23] was 0.22% and the viability, T/C [24] was 0.16%.

`Cn1ncc(Cl)c1-c1cc(C(=O)NC(CN)Cc2cccc(F)c2)sc1Cl` (stereo unspecified) + CC(Nc1ccc2c(c1)OCCn1cc(N3C(=O)OCC3C(F)F)nc1-2)C(N)=O was tested, and the IC50 (second compound 0.00316 µM) was 608 nM, the IC50 (second compound 0.01 µM) was 422 nM and the IC50 (second compound 0.0316 µM) was 339 nM. The IC50 (second compound 0.1 µM) was 226 nM, the IC50 (second compound 0.316 µM) was 64.6 nM and the IC50 (second compound 1 µM) was < 31.6 nM. For the same compound, the viability, T/C [25] was 82.7%, the viability, T/C [26] was 73.8% and the viability, T/C [27] was 48.5%. The viability, T/C [28] was 45.4%, the viability, T/C [29] was 39.2% and the viability, T/C [30] was 10.5%. It also gave a viability, T/C [31] of 106%, a viability, T/C [32] of 76.3% and a viability, T/C [33] of 44.6%. For the same compound, the viability, T/C [34] was 44.1%, the viability, T/C [35] was 34.3% and the viability, T/C [36] was 8.87%. For the same compound, the viability, T/C [1] was 103%, the viability, T/C [2] was 88% and the viability, T/C [3] was 45.6%. The viability, T/C [4] was 29%, the viability, T/C [5] was 23% and the viability, T/C [6] was 5.6%. It also gave a viability, T/C [7] of 88.5%, a viability, T/C [8] of 77.6% and a viability, T/C [9] of 36.3%. For the same compound, the viability, T/C [10] was 21.9%, the viability, T/C [11] was 16.6% and the viability, T/C [12] was 4.47%. The viability, T/C [13] was 64.6%, the viability, T/C [14] was 39.7% and the viability, T/C [15] was 27.7%. It also gave a viability, T/C [16] of 14.7%, a viability, T/C [17] of 13.5% and a viability, T/C [18] of 3.25%. For the same compound, the viability, T/C [19] was 45.1%, the viability, T/C [20] was 25.5% and the viability, T/C [21] was 12.5%. It also gave a viability, T/C [22] of 11%, a viability, T/C [23] of 10.1% and a viability, T/C [24] of 1.75%.
